In ChEMBL document CHEMBL6092161, “First fragment-based screening identifies new chemotypes inhibiting ERAP1-metalloprotease” (Eur J Med Chem, 2024):

What was measured:
[1] = system: Insulin-regulated aminopeptidase (Homo sapiens); test: Inhibition of recombinant human IRAP at 300 uM using L-AMC as substrate preincubated for 30 mins followed by substrate addition and measured after 1 hr by fluorescence based assay; details: time 90.0 min
[2] = target: Endoplasmic reticulum aminopeptidase 2 (Homo sapiens) (UniProt Q6P179); test: Inhibition of recombinant human ERAP2 at 300 uM using R-AMC as substrate preincubated for 30 mins followed by substrate addition and measured after 1 hr by fluorescence based assay relative to control; details: time 90.0 min
[3] = target: T1, Endoplasmic reticulum aminopeptidase 1 (Homo sapiens, UniProt Q9NZ08); test: Inhibition of recombinant human ERAP1 using L-AMC as substrate preincubated for 30 mins followed by substrate addition and measured after 1 hr by fluorescence based assay
[4] = target: T1, Endoplasmic reticulum aminopeptidase 1; test: Inhibition of recombinant human ERAP1 using L-AMC as substrate at 4 uM preincubated for 30 mins followed by substrate addition and measured after 1 hr by fluorescence based assay relative to control; details: time 90.0 min
[5] = target: Endoplasmic reticulum aminopeptidase 2 (Homo sapiens) (UniProt Q6P179); test: Inhibition of recombinant human ERAP2 at 90 uM using R-AMC as substrate preincubated for 30 mins followed by substrate addition and measured after 1 hr by fluorescence based assay relative to control; details: time 90.0 min
[6] = target: T1, Endoplasmic reticulum aminopeptidase 1; test: Inhibition of recombinant human ERAP1 using L-AMC as substrate at 90 uM preincubated for 30 mins followed by substrate addition and measured after 1 hr by fluorescence based assay relative to control; details: time 90.0 min
[7] = target: T1, Endoplasmic reticulum aminopeptidase 1; test: Inhibition of human ERAP1 using L-SIINFEKL as substrate by LC-MS/MS method

T1 sequence (Q9NZ08 whole entry): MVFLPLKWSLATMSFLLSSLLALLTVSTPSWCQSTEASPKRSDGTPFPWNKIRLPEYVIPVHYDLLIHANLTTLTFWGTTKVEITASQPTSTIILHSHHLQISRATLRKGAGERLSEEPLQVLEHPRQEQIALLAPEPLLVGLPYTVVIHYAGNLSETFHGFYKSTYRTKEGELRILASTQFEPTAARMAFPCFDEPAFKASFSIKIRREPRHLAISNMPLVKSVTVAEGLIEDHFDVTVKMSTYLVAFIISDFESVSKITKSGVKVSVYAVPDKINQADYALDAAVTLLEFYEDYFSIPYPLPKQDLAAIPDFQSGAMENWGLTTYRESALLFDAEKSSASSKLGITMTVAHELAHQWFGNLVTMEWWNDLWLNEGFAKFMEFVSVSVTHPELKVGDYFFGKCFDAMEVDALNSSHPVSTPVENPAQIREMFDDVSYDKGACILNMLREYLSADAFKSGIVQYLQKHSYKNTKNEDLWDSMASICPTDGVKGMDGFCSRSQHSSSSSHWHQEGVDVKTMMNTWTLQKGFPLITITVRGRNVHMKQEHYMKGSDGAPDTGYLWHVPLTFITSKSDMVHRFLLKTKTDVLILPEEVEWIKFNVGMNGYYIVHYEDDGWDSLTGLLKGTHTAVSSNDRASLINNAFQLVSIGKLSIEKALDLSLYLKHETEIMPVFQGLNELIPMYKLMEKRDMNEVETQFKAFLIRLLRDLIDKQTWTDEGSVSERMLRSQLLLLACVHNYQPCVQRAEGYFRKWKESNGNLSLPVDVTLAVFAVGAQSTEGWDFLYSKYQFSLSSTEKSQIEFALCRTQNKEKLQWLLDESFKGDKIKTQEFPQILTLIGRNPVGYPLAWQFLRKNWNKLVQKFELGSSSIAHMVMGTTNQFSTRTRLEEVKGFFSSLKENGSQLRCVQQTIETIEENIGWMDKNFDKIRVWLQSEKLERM
Sequence of Endoplasmic reticulum aminopeptidase 2 (Homo sapiens) (Q6P179 whole entry): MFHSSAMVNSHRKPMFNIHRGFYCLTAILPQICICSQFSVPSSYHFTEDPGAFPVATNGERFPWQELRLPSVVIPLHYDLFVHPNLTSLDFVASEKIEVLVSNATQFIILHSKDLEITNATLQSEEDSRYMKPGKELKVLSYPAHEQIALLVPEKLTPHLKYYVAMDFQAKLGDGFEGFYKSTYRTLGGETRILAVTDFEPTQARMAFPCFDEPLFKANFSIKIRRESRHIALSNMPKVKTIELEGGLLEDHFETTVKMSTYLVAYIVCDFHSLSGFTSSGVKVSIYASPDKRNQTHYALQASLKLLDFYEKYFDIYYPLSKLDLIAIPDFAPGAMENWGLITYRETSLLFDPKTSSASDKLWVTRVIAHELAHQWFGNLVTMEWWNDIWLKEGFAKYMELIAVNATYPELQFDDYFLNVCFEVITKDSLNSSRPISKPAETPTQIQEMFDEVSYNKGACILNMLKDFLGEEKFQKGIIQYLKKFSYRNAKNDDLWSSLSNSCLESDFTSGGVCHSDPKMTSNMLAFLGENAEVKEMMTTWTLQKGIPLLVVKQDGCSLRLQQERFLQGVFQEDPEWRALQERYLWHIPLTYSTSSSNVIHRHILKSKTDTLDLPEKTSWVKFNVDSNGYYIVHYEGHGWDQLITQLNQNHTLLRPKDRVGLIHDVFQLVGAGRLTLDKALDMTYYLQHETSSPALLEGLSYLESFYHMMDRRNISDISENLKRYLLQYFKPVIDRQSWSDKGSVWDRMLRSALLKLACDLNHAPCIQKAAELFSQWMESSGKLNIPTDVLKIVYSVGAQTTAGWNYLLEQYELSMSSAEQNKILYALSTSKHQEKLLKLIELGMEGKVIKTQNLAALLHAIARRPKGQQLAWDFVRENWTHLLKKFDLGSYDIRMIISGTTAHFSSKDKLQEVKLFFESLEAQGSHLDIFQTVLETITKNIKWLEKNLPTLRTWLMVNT

SMILES | inhibition [1] [%] | IC50 [3] [µM] | other results
COC(=O)c1ccc(CC2SC(=S)NC2=O)cc1 (centres undefined) | < 30 | – | –
O=C(O)c1ccc(CC2SC(=S)NC2=O)cc1 (centres undefined) | < 30 | – | inhibition [2]: < 30%
O=c1[nH]c(=S)[nH]c(O)c1-c1ccccc1 | – | 82.6 | –
O=C1NC(=O)/C(=C/c2ccc(C(=O)O)cc2)S1 | 38 | – | –
O=C1NC(=O)/C(=C/c2ccc(C(=O)O)cc2)N1 | 30 | – | –
CN1C(=O)S/C(=C\c2ccc(C(=O)O)cc2)C1=O | 47 | – | –
CN1C(=O)/C(=C/c2ccc(C(=O)O)cc2)SC1=S | 51 | – | inhibition [2]: 43%
COc1ccc(Cc2c(O)nc(S)nc2O)cc1 | – | 58.3 | –
O=C(O)Cc1ccc(S(=O)(=O)N2CCCC2)s1 | 62 | 27.2 | –
COC(=O)c1ccc(/C=C2\SC(=S)NC2=O)cc1 | < 30 | – | –
O=C(O)Cc1cccc(S(=O)(=O)N2CCCC2)c1 | < 30 | – | –
O=C1NC(=O)C(Cc2ccc(C(=O)O)cc2)S1 (centres undefined) | 30 | – | –
CC(C)C[C@H](NC(=O)[C@@H](O)[C@H](N)Cc1ccccc1)C(=O)O | – | – | inhibition [4]: 100%; inhibition [5]: 50%; inhibition [6]: 100%
O=C(O)Cc1ccc(S(=O)(=O)N2CCCCC2)s1 | 58 | – | inhibition [2]: 38%
O=C1NC(=S)S/C1=C\c1ccc(C(=O)O)cc1 | – | 19.5 | IC50 [7]: 28.6 µM
Nc1[nH]cnc2nc(S)nc1-2 | – | 2.2 | IC50 [7]: 10.3 µM
